Assays:
BRG-1 = target: T1, BRG-1 (Homo sapiens, UniProt P51532); assay: ATPase catalytic activity of BRG-1, ADP-Glo in vitro biochemical assay; details: ADP-Glo ATPase assay, 30 nM BRG-1, 400 μM ATP; read-out: BRG1 IC50
T1 construct: made in house; host or cells: High Five insect cells
Procedure, shortened: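 BRG-1 ATPase activity was measured in vitro by ADP-Glo. After the reaction, ADP-Glo Reagent depleted unconsumed ATP (40 min, room temperature), then Kinase Detection Reagent converted product ADP to ATP (60 min, room temperature), and luciferase luminescence was read.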

BRM = target: T2, BRM (Homo sapiens, UniProt P51531); assay: ATPase catalytic activity of BRM, ADP-Glo in vitro biochemical assay; details: for IC50: ADP-Glo ATPase assay, 30 nM BRM, 400 μM ATP; for Ratio*: ratio BRG1 IC50 / BRM IC50
T2 construct: made in house; host or cells: High Five insect cells
Procedure, shortened: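 Recombinant BRM (30 nM) hydrolysed 400 μM ATP with 20 nM salmon sperm DNA in pH 8 Tris buffer containing 20 mM MgCl2, 50 mM NaCl, 0.1% Tween-20 and 1 mM DTT, 1 h at room temperature. ADP formed was quantified by ADP-Glo luminescence.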

T1 sequence (P51532 whole entry): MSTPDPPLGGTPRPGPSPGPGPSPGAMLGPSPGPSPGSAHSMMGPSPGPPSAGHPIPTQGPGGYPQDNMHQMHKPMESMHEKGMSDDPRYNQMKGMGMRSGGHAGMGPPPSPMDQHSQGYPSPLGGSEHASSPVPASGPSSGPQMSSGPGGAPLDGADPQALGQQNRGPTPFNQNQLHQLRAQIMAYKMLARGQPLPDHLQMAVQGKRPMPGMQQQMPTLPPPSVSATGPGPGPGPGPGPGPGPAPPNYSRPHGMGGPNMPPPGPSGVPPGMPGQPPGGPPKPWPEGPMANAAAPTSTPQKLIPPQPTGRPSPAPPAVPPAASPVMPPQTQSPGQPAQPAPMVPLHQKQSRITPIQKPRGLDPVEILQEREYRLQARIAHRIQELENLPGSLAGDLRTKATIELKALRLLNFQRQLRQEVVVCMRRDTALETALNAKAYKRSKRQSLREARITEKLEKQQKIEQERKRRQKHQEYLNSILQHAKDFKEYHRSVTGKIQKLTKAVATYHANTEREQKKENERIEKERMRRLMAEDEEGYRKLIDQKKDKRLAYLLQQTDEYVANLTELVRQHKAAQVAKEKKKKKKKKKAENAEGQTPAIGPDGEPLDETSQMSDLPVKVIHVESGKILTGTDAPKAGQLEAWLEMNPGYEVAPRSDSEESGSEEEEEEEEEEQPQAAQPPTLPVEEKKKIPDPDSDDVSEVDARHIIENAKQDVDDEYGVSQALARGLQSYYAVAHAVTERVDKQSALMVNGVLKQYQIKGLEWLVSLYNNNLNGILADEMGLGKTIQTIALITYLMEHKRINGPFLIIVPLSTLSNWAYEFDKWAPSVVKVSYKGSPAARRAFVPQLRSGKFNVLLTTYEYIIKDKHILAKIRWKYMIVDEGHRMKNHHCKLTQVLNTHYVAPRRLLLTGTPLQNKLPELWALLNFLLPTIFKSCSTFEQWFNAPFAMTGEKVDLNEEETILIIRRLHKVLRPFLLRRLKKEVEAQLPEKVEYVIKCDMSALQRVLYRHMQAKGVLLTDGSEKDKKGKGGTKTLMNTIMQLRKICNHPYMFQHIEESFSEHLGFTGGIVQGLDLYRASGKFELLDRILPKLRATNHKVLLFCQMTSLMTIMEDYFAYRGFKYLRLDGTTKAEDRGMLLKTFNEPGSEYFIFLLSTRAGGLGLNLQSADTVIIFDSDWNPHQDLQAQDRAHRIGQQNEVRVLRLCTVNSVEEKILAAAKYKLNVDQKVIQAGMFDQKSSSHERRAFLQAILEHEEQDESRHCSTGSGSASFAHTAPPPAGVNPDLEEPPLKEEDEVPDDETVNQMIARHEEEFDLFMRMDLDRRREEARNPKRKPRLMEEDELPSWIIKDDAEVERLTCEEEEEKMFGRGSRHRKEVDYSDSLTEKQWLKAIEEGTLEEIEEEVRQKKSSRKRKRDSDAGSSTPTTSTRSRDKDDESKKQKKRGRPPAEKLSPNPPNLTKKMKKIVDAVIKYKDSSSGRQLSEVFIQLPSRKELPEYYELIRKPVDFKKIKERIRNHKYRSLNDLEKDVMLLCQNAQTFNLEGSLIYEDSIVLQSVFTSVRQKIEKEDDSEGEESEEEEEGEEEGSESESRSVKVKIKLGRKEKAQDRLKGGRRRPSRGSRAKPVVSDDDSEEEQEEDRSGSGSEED
T2 sequence (P51531 whole entry): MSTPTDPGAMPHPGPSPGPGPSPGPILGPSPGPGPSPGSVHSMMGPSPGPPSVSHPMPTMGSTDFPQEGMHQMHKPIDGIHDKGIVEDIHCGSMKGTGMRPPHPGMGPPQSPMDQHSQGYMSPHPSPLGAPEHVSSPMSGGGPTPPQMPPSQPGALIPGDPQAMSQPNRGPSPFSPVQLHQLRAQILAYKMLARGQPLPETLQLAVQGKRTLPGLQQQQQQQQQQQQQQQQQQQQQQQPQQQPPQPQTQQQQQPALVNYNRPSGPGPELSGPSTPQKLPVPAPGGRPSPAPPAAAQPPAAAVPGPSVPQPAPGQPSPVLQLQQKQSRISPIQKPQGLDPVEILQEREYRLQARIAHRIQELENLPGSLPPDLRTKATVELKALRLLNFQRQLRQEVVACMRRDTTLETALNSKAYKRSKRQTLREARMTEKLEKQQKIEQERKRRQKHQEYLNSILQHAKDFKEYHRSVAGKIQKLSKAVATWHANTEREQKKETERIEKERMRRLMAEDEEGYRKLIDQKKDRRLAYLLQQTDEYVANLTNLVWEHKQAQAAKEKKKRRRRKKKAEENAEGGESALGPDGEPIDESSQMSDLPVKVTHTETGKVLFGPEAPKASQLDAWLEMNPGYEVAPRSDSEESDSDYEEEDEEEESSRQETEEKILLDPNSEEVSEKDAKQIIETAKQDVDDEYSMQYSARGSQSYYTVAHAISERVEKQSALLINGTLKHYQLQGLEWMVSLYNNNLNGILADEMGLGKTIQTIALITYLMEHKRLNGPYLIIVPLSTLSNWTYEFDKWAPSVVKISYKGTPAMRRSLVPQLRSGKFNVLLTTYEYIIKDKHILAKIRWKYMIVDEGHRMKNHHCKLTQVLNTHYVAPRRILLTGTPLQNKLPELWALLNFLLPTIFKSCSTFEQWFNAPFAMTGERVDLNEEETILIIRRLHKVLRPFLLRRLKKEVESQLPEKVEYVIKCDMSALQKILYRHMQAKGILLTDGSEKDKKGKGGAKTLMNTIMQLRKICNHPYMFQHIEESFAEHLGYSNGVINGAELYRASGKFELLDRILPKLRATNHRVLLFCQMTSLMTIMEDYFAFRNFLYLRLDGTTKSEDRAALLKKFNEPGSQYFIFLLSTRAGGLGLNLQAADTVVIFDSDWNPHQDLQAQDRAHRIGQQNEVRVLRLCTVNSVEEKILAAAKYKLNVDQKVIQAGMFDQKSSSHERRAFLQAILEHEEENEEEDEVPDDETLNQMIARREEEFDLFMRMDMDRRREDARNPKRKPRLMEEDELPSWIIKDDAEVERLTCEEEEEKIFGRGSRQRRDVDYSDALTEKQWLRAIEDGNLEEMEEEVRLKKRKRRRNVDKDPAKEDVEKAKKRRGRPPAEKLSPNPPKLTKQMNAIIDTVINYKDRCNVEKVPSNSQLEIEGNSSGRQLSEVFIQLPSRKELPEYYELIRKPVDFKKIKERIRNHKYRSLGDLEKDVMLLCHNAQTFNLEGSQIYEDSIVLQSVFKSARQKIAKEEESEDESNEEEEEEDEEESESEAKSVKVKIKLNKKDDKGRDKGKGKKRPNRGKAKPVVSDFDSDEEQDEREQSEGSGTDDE

Row | Compound | IC50 (BRG-1) [nM] | IC50 (BRM) [nM] | Ratio* (BRM)
1 | CN(C)c1cnc2c(c1)OCCN2c1ccc2cnc(CNC(=O)c3ccc4c(c3)S(=O)(=O)CCOC4)cc2c1 [Compound 790] | 61.4 | 12.2 | 5.03
2 | O=C(NCc1cc2nc(N3CCCc4cc5c(cc43)OCO5)ccc2cn1)c1ccc2c(c1)S(=O)(=O)CCOC2 [Compound 792] | 135 | 13.7 | 9.88
3 | O=C(NCc1cc2nc(N3CCCc4cc5c(cc43)OCCO5)ccc2cn1)c1ccc2c(c1)S(=O)(=O)CCOC2 [Compound 793] | 140 | 11.8 | 11.88
4 | COCc1cc2c(c(F)c1Cl)N(c1ccc3cnc(CNC(=O)c4ccc5c(c4)S(=O)(=O)CCOC5)cc3n1)CCO2 [Compound 794] | 30.4 | 6.6 | 4.60
5 | O=C(NCc1cc2nc(N3CCOc4ccc(C5(F)CC5(F)F)nc43)ccc2cn1)c1ccc2c(c1)S(=O)(=O)CCOC2 (stereo not drawn) [Compound 795] | 4110 | 122 | 33.67
6 | COCc1cc(F)c2c(c1)OCCN2c1ccc2cnc(CNC(=O)c3ccc4c(c3)S(=O)(=O)CCOC4)cc2n1 [Compound 796] | 272 | 20.8 | 13.06
7 | O=C(NCc1cc2nc(-c3cccc(N4CC(C5(F)COC5)C4)n3)ccc2cn1)c1ccc2c(c1)S(=O)(=O)CCOC2 [Compound 797] | 190 | 18.8 | 10.11
8 | O=C(NCc1cc2cc(N3CCOc4cc(N5CCOCC5)cnc43)ccc2cn1)c1ccc2c(c1)S(=O)(=O)CCOC2 [Compound 798] | 43.8 | 7.4 | 5.90
9 | O=C(NCc1cc2cc(N3CCOc4ccc(C(F)F)nc43)ccc2cn1)c1ccc2c(c1)S(=O)(=O)CCOC2 [Compound 799] | 663 | 25.5 | 26.04
10 | O=C(NCc1ncc2ccc(N3CCOc4cc(C5CC5)cnc43)cc2n1)c1ccc2c(c1)S(=O)(=O)CCOC2 [Compound 800] | 636 | 169 | 3.77
11 | O=C(NCc1cc2cc(N3CCOc4cc(C5CC5)cnc43)cnc2cn1)c1ccc2c(c1)S(=O)(=O)CCOC2 [Compound 801] | 1440 | 111 | 13.00
12 | COc1c(F)cnc2c1CCCN2c1ccc2cnc(CNC(=O)c3ccc4c(c3)S(=O)(=O)CCOC4)cc2n1 [Compound 802] | 67.1 | 8.1 | 8.31
13 | CN(C)c1cc2c(cn1)N(c1ccc3cnc(CNC(=O)c4ccc5c(c4)S(=O)(=O)CCOC5)cc3n1)CCO2 [Compound 803] | 105 | 8.1 | 12.88
14 | O=C(NCc1cc2nc(N3CCOc4c(F)cc(C5CC5)nc43)ccc2cn1)c1ccc2c(c1)S(=O)(=O)CCOC2 [Compound 804] | 646 | 15.8 | 40.93
15 | O=C(NCc1cc2nc(N3CCOc4cc(C5CC5)c(F)c(F)c43)ccc2cn1)c1ccc2c(c1)S(=O)(=O)CCOC2 [Compound 805] | 303 | 26.2 | 11.56
16 | COc1nn(C(F)F)cc1-c1ccc2cnc(CNC(=O)c3ccc4c(c3)S(=O)(=O)CCOC4)cc2n1 [Compound 806] | 801 | 92.3 | 8.67
17 | [2H]C1([2H])OC([2H])([2H])C([2H])([2H])S(=O)(=O)c2cc(C(=O)NCc3cc4nc(N5CCOc6ccc(C(F)F)nc65)ccc4cn3)ccc21 [Compound 807] | 486 | 19.1 | 25.47
18 | COc1ncccc1-c1ccc2cnc(CNC(=O)c3ccc4c(c3)S(=O)(=O)CCOC4)cc2n1 [Compound 808] | 1050 | 84 | 12.50

Row | Compound | IC50 (BRG-1) [nM] | IC50 (BRM) [nM] | Ratio* (BRM)
19 | C[C@@H]1C[C@H]1c1ccc2c(n1)N(c1ccc3cnc(CNC(=O)c4ccc5c(c4)S(=O)(=O)CCOC5)cc3n1)CCO2 [Compound 809] | 269 | 6.9 | 39.28
20 | C[C@H]1C[C@@H]1c1ccc2c(n1)N(c1ccc3cnc(CNC(=O)c4ccc5c(c4)S(=O)(=O)CCOC5)cc3n1)CCO2 [Compound 810] | 185 | 8.3 | 22.29
21 | Cn1cc(-c2ccc3cnc(CNC(=O)c4ccc5c(c4)S(=O)(=O)CCOC5)cc3n2)c(OC(F)F)n1 [Compound 812] | 662 | 45.8 | 14.46
22 | O=C(NCc1cc2nc(N3CCOc4c3cnc(C3CC3)c4F)ccc2cn1)c1ccc2c(c1)S(=O)(=O)CCOC2 [Compound 813] | 477 | 38.1 | 12.52
23 | O=C(NCc1cc2nc(N3CCCc4c(N5CCC5)ccnc43)ccc2cn1)c1ccc2c(c1)S(=O)(=O)CCOC2 [Compound 814] | 222 | 21.4 | 10.40
24 | O=C(NCc1cc2nc(-c3ccccc3OCC3CC3)ccc2cn1)c1ccc2c(c1)S(=O)(=O)CCOC2 [Compound 815] | 1450 | 193 | 7.51
25 | COCc1cc(C)c2c(n1)N(c1ccc3cnc(CNC(=O)c4ccc5c(c4)S(=O)(=O)CCOC5)cc3n1)CCC2 [Compound 816] | 764 | 42.3 | 18.04
26 | CN(c1cnc2c(c1)OCCN2c1ccc2cnc(CNC(=O)c3ccc4c(c3)S(=O)(=O)CCOC4)cc2n1)C1CC(F)(F)C1 [Compound 817] | 143 | 12.4 | 11.55
27 | [2H]C1([2H])Oc2ccc(C(=O)NCc3cc4nc(N5CCOc6ccc(C(F)F)nc65)ccc4cn3)cc2S(=O)(=O)C([2H])([2H])C1([2H])[2H] [Compound 818] | 1680 | 62.4 | 26.90
28 | CN(c1cnc2c(c1)OCCN2c1ccc2cnc(CNC(=O)c3ccc4c(c3)S(=O)(=O)CCOC4)cc2n1)C1CCC1 [Compound 819] | 46.7 | 6.4 | 7.26
29 | O=C(NCc1cc2nc(-c3cccc(OCC4CC4)c3)ccc2cn1)c1ccc2c(c1)S(=O)(=O)CCOC2 [Compound 820] | 1380 | 96.1 | 14.31
30 | COCc1cc2c(cn1)N(c1ccc3cnc(CNC(=O)c4ccc5c(c4)S(=O)(=O)CCOC5)cc3n1)CCC2 [Compound 821] | 959 | 79.7 | 12.03
31 | O=C(NCc1cc2cc(N3CCOc4cnc(C5CC5)nc43)ccc2cn1)c1ccc2c(c1)S(=O)(=O)CCOC2 [Compound 822] | 458 | 36.7 | 12.47
32 | O=C(NCc1cc2nc(N3CCCc4ccc(C(F)CF)nc43)ccc2cn1)c1ccc2c(c1)S(=O)(=O)CCOC2 (stereo not drawn) [Compound 823] | 1090 | 61.3 | 17.84
33 | Cc1ccc(-c2ccc3cnc(CNC(=O)c4ccc5c(c4)S(=O)(=O)CCOC5)cc3n2)c(=O)n1C [Compound 824] | 4820 | 742 | 6.49
34 | COc1ncc(F)c2c1CCCN2c1ccc2cnc(CNC(=O)c3ccc4c(c3)S(=O)(=O)CCOC4)cc2n1 [Compound 825] | 246 | 31.9 | 7.70
35 | O=C(NCc1cc2nc(N3CCOc4c3ncc(C3CC3)c4F)ccc2cn1)c1ccc2c(c1)S(=O)(=O)CCOC2 [Compound 827] | 153 | 13.1 | 11.63
